Molecules are shown by their SMILES. Where a name gives a salt, the structure may show the parent alone.

One experiment concerns the target T1, 2,3-DPG phosphatase (Homo sapiens, UniProt P07738).
T1 sequence (P07738 1-259): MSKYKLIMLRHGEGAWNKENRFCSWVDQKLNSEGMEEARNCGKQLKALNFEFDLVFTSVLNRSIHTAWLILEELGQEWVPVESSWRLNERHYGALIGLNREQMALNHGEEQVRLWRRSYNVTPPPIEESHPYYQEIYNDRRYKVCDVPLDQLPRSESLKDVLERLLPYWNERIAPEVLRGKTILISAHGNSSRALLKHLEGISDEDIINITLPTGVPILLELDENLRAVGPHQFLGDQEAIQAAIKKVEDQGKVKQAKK
The experiment in a line: 2,3-Diphosphoglycerate Phosphatase Assay (radiochemical, release of inorganic 32P-phosphate from 2,3-DPG). The experiment is classed as biochemical. As to conditions: 100 μM compound; pH 7.5, 110 μM 32P-labeled 2,3-DPG, 5 μM phosphoglycolate, 37° C., 20 minutes. As for the experimental part:
2,3-Diphosphoglycerate Phosphatase Assay The activity of 2,3-DPG phosphatase was determined radiochemically using a method based on Rose et al. (J. Biol. Chem. 245, 3232-3241, 1970). In this method the activity of the phosphatase is measured by determining the release of inorganic phosphate from the substrate, 2,3-DPG. The test compounds were dissolved in dimethyl sulfoxide at 100 times the final concentration used and then added to the reaction mixture at the beginning of the assay period. In the control experiments equivalent concentration of dimethyl sulfoxide was used. […] At the end of incubation the reaction was stopped by the addition of 0.1 ml of 15% w/v trichloroacetic acid and the sample was centrifuged (Eppendorf microfuge, Model 5413) in order to remove protein precipitates. Then 0.2 ml of the supernatant was withdrawn and mixed with 0.1 ml of 8 M sulfuric acid, 0.1 ml of 5% w/v ammonium molybdate and 0.6 ml of water. The mixture then was extracted with 2 ml of isobutanol/benzene (1:1,v/v) and then centrifuged to effect separation of the phases. 1 ml of the organic phase containing the extracted ^32 p-phosphate was counted in a scintillation counter (Beckman, Model LS 8,000) using a program for ^32 p radioactivity. The activity of the enzyme was expressed as number of mole phosphate release per minute. From the data obtained by employing the test method above-described, the percent inhibition of 2,3-DPG phosphatase was calculated and is shown in Table II.
The compound `COc1cccc2cc(C(=O)O)c(O)cc12` [a, 5-methoxy-3-hydroxy-2-naphthoic acid] gave an inhibition at 100 µM of 79.2%.

Regarding `O=C(O)c1cc2cccc(OCCc3ccccc3)c2cc1O` [b, 5-phenetoxy-3-hydroxy-2-naphthoic acid], at 100 µM the inhibition was 94.3%.

The compound `O=C(O)c1cc2cccc(OCc3cccc(C(F)(F)F)c3)c2cc1O` [c, 5-(3-trifluoromethylbenzyloxy)-3-hydroxy-2-naphthoic acid] gave an inhibition at 100 µM of 94.3%.

`O=C(O)c1cc2cccc(OCCOc3ccccc3)c2cc1O` [d, 5-phenoxyethoxy-3-hydroxy-2-naphthoic acid]: the inhibition at 100 µM worked out at 92.5%.

Compound `CC(=O)Oc1cccc2cc(C(=O)O)c(O)cc12` [g, 5-acetoxy-3-hydroxy-2-naphthoic acid] had an inhibition at 100 µM of 89.6%.

`O=C(O)c1cc2cccc(OCc3ccccc3)c2cc1O` [h, 5-benzyloxy-3-hydroxy-2-naphthoic acid] showed an inhibition at 100 µM of 74%.

Consider `CCOC(=O)c1cc2cccc(OCCN3CCCC3)c2cc1OCCN1CCCC1` [p, ethyl 3,5-bis[2-(1-pyrrolidinyl)ethoxy]-2-naphthoate monohydrochloride], for which the inhibition at 100 µM came out at 99.2%.

`O=C(O)c1cc2cccc(OCc3ccc(Cl)c(Cl)c3)c2cc1O` [q, 5-(3,4-dichlorobenzyloxy)-3-hydroxy-2-naphthoic acid] displayed an inhibition at 100 µM of 97.7%.

Take `O=C(O)c1cc2cccc(OCCCc3ccccc3)c2cc1O` [r, 3-hydroxy-5-(3-phenylpropoxy)-2-naphthoic acid]: the inhibition at 100 µM is 97.1%.

For the compound `O=C(O)c1cc2cccc(OCc3ccc(Cl)cc3Cl)c2cc1O` [s, 5-(2,4-dichlorobenzyloxy)-3-hydroxy-2-naphthoic acid], the inhibition at 100 µM worked out at 95.6%.

In turn, `O=C(O)c1cc2cccc(OCc3c(Cl)cccc3Cl)c2cc1O` [t, 5-(2,6-dichlorobenzyloxy)-3-hydroxy-2-naphthoic acid] had an inhibition at 100 µM of 94.2%.

With `O=C(O)c1cc2cccc(OCCCc3ccc(Cl)c(Cl)c3)c2cc1O` [u, 5-[3-(3,4-dichlorophenyl)-propoxy]-3-hydroxy-2-naphthoic acid], at 100 µM the inhibition was 86.9%.

As for `O=C(O)c1cc2cccc(OCc3ccc(F)cc3)c2cc1O` [v, 5-(4-fluorobenzyloxy)-3-hydroxy-2-naphthoic acid], the inhibition at 100 µM worked out at 89%.

Regarding `O=C(O)c1cc2cccc(OCc3ccc(Cl)c(Cl)c3)c2cc1OCc1ccc(Cl)c(Cl)c1` [w, 3,5-bis-(3,4-dichlorobenzyloxy)-2-naphthoic acid], 100 µM produced 93.6% inhibition.

`C=CCCCCCCCCCOc1cccc2cc(C(=O)O)c(O)cc12` [x, 3-hydroxy-5(undecenyloxy)-2-naphthoic acid] gave an inhibition at 100 µM of 100%.

As to `O=C(O)c1cc2cccc(OCc3ccccc3)c2cc1OC(=O)C(Cl)Cl` [y, 5-benzyloxy-3-dichloroacetoxy-2-naphthoic acid], at 100 µM the inhibition was 81.9%.

Another experiment concerns oxygen-dissociation curve in whole human blood.
Experiment: not given
As to conditions: in vitro, increase of 2,3-DPG; cited from earlier work.
Turning to `O=C(O)C(COP(=O)(O)O)OP(=O)(O)O` (centres unmarked) [2,3-DPG, 2,3-diphosphoglyceric acid], the “displacement of the oxygen-dissociation curve (in words)” value was “displaces in vitro the oxygen-dissociation curve to the right of normal”.

Broadly, the inhibition is the percentage by which the read-out fell short of the control. Low readings indicate a response near the control, high ones a response far below the control.

These data come from patent US4861795A, “Treatment of conditions requiring enhanced oxygen availability to mammalian tissues” (Rorer Pharmaceutical Corporation, priority 1988, dated 1989).
